Our source for the Ki values is patent US8350028B2, “2-aminoquinolines” (Hofmann-La Roche Inc., priority 2008, dated 2013).

pKi: −log10 of the molar value.

The target in this assay is T1, recombinant human 5-HT5A receptor (Homo sapiens, UniProt P47898).
T1 construct: expressed in transfected cells; host or cells: HEK-EBNA (Human Embryonic Kidney-EBNA) cells, transient cDNA expression; membranes
T1 sequence (P47898 whole entry): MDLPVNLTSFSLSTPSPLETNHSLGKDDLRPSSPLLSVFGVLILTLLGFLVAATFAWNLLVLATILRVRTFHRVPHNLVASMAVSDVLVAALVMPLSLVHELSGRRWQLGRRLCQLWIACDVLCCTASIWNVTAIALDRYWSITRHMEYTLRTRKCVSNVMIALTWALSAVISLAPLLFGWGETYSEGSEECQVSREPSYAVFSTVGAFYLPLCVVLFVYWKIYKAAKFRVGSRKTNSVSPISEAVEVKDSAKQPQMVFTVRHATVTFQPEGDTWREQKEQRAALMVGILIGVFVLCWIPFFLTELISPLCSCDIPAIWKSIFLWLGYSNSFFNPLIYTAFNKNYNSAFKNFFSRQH
In words: [3H]LSD radioligand binding assay. The conditions noted are these: [3H]LSD (approximately 1 nM); membranes from HEK-EBNA cells transiently expressing 5-HT5A receptors; Ki calculated from IC50 using the Cheng-Prussoff equation. As to the method:
A [^3H]LSD radioligand binding assay was used to determine the affinity of the compounds for the recombinant human 5-HT5A receptor, in membranes from transiently (cDNA) expressed 5-HT5A receptors in Human Embryonic Kidney-EBNA (HEK-EBNA) cells. Assay buffer consisted of Tris (50 mM) buffer containing 1 mM EGTA, 10 mM MgCl2 (pH 7.4) and 10 μM pargyline. The binding assay was carried out in 96-well-plates in the presence of [^3H]LSD (approximately 1 nM), approximately 2 μg/well of membrane protein, and 0.5 mg of Ysi-poly-1-lysine SPA beads in a final volume of 200 μl of buffer. Non-specific binding was defined using methiothepin 2 μM. Compounds were tested at 10 concentrations. All assays were conducted in duplicate and repeated at least two times. Assay plates were incubated for 120 min at room temperature before centrifugation. Bound ligand was determined using a Packard Topcount scintillation counter. IC50 values were calculated using a non-linear curve fitting program and Ki values calculated using the Cheng-Prussoff equation.
Broadly, the pKi is −log10 of the Ki, conventionally taken in molar units. Consider `COc1ccccc1CNc1ccc2cc(NC(=O)NC(C)C)ccc2n1` [Example 14, 1-Isopropyl-3-[2-(2-methoxy-benzylamino)-quinolin-6-yl]-urea], for which the pKi was 8.48.

`COc1ccccc1CNc1ccc2cc(NS(=O)(=O)NC3CC3)ccc2n1` [Example 20, N-cyclopropyl-N′-{2-[(2-methoxybenzyl)amino]quinolin-6-yl}sulfamide]: the pKi is 7.57.

As for `COc1ccccc1CNc1ccc2cc(NC(=O)NC3CCN(CCSC)CC3)ccc2n1` [Example 30, 1-[2-(2-Methoxy-benzylamino)-quinolin-6-yl]-3-[1-(2-methylsulfanyl-ethyl)-piperidin-4-yl]-urea], the pKi was 8.23.

For `Cc1ccc(CNc2ccc3cc(NC(=O)NC(C)C)ccc3n2)o1` [Example 21, 1-Isopropyl-3-{2-[(5-methyl-furan-2-ylmethyl)-amino]-quinolin-6-yl}-urea], the pKi was 7.56.

Regarding `COCC(=O)N1CCC(NC(=O)Nc2ccc3nc(NCc4ccccc4OC)ccc3c2)CC1` [Example 31, 1-[1-(2-Methoxy-acetyl)-piperidin-4-yl]-3-[2-(2-methoxy-benzylamino)-quinolin-6-yl]-urea], the pKi was 7.69.

As to `COc1ccccc1CNc1ccc2cc(NC(=O)C3CC3)ccc2n1` [Example 32, Cyclopropanecarboxylic acid [2-(2-methoxy-benzylamino)-quinolin-6-yl]-amide], the negative logarithm of the Ki (pKi) is 8.19.

`COc1ccccc1CNc1ccc2cc(NS(=O)(=O)N3C[C@@H]4C[C@H]3CO4)ccc2n1` [Example 19, (1S,4S)-2-Oxa-5-aza-bicyclo[2.2.1]heptane-5-sulfonic acid [2-(2-methoxy-benzylamino)-quinolin-6-yl]-amide]: the pKi is 8.10.

Turning to `COc1ccccc1CNc1ccc2cc(NC(=O)CN3CCN(C)CC3)ccc2n1` [Example 33, N-[2-(2-Methoxy-benzylamino)-quinolin-6-yl]-2-(4-methyl-piperazin-1-yl)-acetamide], the pKi was 7.48.

Turning to `COCCN1CCC(NC(=O)Nc2ccc3nc(NCc4ccccc4OC)ccc3c2)CC1` [Example 23, 1-[2-(2-Methoxy-benzylamino)-quinolin-6-yl]-3-[1-(2-methoxy-ethyl)-piperidin-4-yl]-urea], the pKi is 8.19.

With `COc1ccccc1CNc1ccc2cc(NC(=O)NC3CCN(C(=O)CF)CC3)ccc2n1` [Example 27, 1-[1-(2-Fluoro-acetyl)-piperidin-4-yl]-3-[2-(2-methoxy-benzylamino)-quinolin-6-yl]-urea], the pKi was 7.80.

For `COc1ccccc1CNc1ccc2cc(NC(=O)NC3CCN(C(C)C)CC3)ccc2n1` [Example 25, 1-(1-Isopropyl-piperidin-4-yl)-3-[2-(2-methoxy-benzylamino)-quinolin-6-yl]-urea], the pKi is 8.17.

As for `COc1ccc(CNc2ccc3cc(NC(=O)NC(C)C)ccc3n2)cc1` [Example 18, 1-Isopropyl-3-[2-(4-methoxy-benzylamino)-quinolin-6-yl]-urea], the negative-log Ki (pKi) is 7.31.

Regarding `COc1ccccc1CNc1ccc2cc(NS(=O)(=O)N(C)C)ccc2n1` [Example 10, N′-{2-[(2-methoxybenzyl)amino]quinolin-6-yl}-N,N-dimethylsulfamide], the pKi was 7.77.

Turning to `COc1ccccc1CNc1ccc2cc(NC(=O)NC3CCN(C(=O)CC(F)(F)F)CC3)ccc2n1` [Example 26], the pKi was 7.44.

With `COc1ccccc1CNc1ccc2cc(NC(=O)NC3CCN(CCF)CC3)ccc2n1` [Example 24, 1-[1-(2-Fluoro-ethyl)-piperidin-4-yl]-3-[2-(2-methoxy-benzylamino)-quinolin-6-yl]-urea], the pKi is 8.08.

With `Cc1ccc(CNc2ccc3cc(NC(=O)NC4CCN(C)CC4)ccc3n2)o1` [Example 29, 1-{2-[(5-Methyl-furan-2-ylmethyl)-amino]-quinolin-6-yl}-3-(1-methyl-piperidin-4-yl)-urea], the pKi is 7.90.

Consider `COc1ccccc1CNc1ccc2cc(NC(=O)NC3CCN(C)CC3)ccc2n1` [Example 17, 1-[2-(2-Methoxy-benzylamino)-quinolin-6-yl]-3-(1-methyl-piperidin-4-yl)-urea], for which the pKi was 8.57.

Turning to `COc1ccccc1CNc1ccc2cc(NC(=O)NC3CCN(C4CC4)CC3)ccc2n1` [Example 28, 1-(1-Cyclopropyl-piperidin-4-yl)-3-[2-(2-methoxy-benzylamino)-quinolin-6-yl]-urea], the pKi was 8.17.
